Experiments:
[1] = molecular target: T1, Alpha-1D adrenergic receptor (Homo sapiens, UniProt P25100); format: cell membranes, HEK293, Membrane; conditions: hek293; further: in other assays of this panel Not Active means under 50% inhibition at 10 µM
T1 sequence (P25100 whole entry): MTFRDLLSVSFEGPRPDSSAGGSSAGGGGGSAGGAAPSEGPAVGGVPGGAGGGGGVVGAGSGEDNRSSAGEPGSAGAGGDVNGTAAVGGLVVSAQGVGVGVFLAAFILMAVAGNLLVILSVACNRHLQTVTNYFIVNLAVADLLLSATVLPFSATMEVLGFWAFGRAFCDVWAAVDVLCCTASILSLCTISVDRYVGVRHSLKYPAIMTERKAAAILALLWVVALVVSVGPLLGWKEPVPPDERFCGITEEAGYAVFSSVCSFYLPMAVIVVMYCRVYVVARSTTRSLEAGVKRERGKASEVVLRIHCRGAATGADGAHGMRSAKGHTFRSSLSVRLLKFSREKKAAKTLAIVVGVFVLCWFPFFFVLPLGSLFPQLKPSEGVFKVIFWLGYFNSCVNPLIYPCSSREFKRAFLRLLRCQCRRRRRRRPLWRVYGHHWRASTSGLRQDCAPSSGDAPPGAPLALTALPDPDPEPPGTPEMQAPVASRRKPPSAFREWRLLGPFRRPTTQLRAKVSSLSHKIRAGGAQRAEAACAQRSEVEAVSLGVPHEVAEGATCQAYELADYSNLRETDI

[2] = molecular target: Aldo-keto reductase family 1 member B1 (Rattus norvegicus, UniProt P07943); assay: biochemical; format: tissue-based, Lens of camera-type eye;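 further: inhibition of aldose reductase enzyme activity, measured with DL-glyceraldehyde as the substrate; in other assays of this panel Not Active means under 50% inhibition at 10 µM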
[3] = DRUGMATRIX: ATPase, Na+/K+ enzyme inhibition (substrate: ATP); format: tissue-based, Sus scrofa, Heart; conditions: Not Active = under 50% inhibition at 10 µM
[4] = DRUGMATRIX: Calcium Channel Type L, Dihydropyridine radioligand binding (ligand: [3H] Nitrendipine); format: cell membranes, Rattus norvegicus, Wistar, Cerebral cortex, Membrane; conditions: Not Active = under 50% inhibition at 10 µM
[5] = DRUGMATRIX: Tumor Necrosis Factor (TNF), Non-Selective radioligand binding (ligand: [125I] TNF-alpha); format: cell membranes, Membrane; conditions: u-937; Not Active = under 50% inhibition at 10 µM
[6] = molecular target: T2, Vasoactive intestinal polypeptide receptor 1 (Homo sapiens, UniProt P32241); format: cell membranes, Membrane; conditions: ht-29; further: in other assays of this panel Not Active means under 50% inhibition at 10 µM
T2 sequence (P32241 whole entry): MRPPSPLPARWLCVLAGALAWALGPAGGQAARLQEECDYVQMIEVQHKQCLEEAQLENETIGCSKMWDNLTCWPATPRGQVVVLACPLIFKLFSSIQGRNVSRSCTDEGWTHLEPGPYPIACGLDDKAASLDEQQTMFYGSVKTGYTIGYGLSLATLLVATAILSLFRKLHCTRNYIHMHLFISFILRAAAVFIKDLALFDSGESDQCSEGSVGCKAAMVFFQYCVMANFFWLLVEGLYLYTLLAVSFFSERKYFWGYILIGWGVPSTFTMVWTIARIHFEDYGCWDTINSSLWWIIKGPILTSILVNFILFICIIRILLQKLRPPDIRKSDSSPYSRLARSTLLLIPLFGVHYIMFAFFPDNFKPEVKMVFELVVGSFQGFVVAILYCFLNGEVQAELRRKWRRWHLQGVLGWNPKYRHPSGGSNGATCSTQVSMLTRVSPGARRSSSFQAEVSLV

[7] = DRUGMATRIX: Glutamate, Kainate radioligand binding (ligand: [3H] Kainic acid); format: cell membranes, Rattus norvegicus, Wistar, Brain, Membrane; conditions: Not Active = under 50% inhibition at 10 µM

NC(=O)c1cnccn1 [PYRAZINAMIDE]
Not Active: IC50 [1] | IC50 [2] | IC50 [3] | Ki [3] | IC50 [4] | Ki [4] | IC50 [5] | Ki [5] | IC50 [6] | IC50 [7] | Ki [7]

OC(CCN1CCCCC1)(c1ccccc1)C1CCCCC1 (centres undefined) [TRIHEXYPHENIDYL]
Not Active: IC50 [1] | IC50 [2] | IC50 [3] | Ki [3] | IC50 [4] | Ki [4] | IC50 [5] | Ki [5] | IC50 [6] | IC50 [7] | Ki [7]

Cc1cc2cc3c(C)cc(=O)oc3c(C)c2o1 [TRIOXSALEN]
Not Active: IC50 [1] | IC50 [2] | IC50 [3] | Ki [3] | IC50 [4] | Ki [4] | IC50 [5] | Ki [5] | IC50 [6] | IC50 [7] | Ki [7]

CCCC(CCC)C(=O)O [VALPROIC ACID]
Not Active: IC50 [1] | IC50 [2] | IC50 [3] | Ki [3] | IC50 [4] | Ki [4] | IC50 [5] | Ki [5] | IC50 [6] | IC50 [7] | Ki [7]

CCC1=C[C@@H]2CN(C1)Cc1c([nH]c3ccccc13)[C@@](C(=O)OC)(c1cc3c(cc1OC)N(C)[C@H]1[C@@](O)(C(=O)OC)[C@H](OC(C)=O)[C@]4(CC)C=CCN5CC[C@]31[C@@H]54)C2 [VINORELBINE]
Not Active: IC50 [1] | IC50 [2] | IC50 [3] | Ki [3] | IC50 [4] | Ki [4] | IC50 [5] | Ki [5] | IC50 [6] | IC50 [7] | Ki [7]

CADMIUM DICHLORIDE
Not Active: IC50 [1] | Ki [1] | IC50 [2] | Ki [2] | IC50 [3] | Ki [3] | IC50 [4] | Ki [4] | IC50 [5] | Ki [5] | IC50 [6] | Ki [6] | IC50 [7] | Ki [7]

— ChEMBL document CHEMBL1909046, “DrugMatrix in vitro pharmacology data”
